The results in this text go back to a melting point compilation (Tetko et al.; mined from patent text by program, amines drawn as free bases though some values may be those of a salt).

`CCOC(Cc1ccc(OCCN2CCOc3ccccc32)cc1)C(=O)NCc1ccccc1` (configuration not stated) returned a melting point of 94 to 96 °C. With `CCSc1cc(O)c(C#N)s1`, the melting point was found to be 105 °C. `CC(=O)Nc1ccc(Sc2ccccc2)cc1` gave a melting point of 142 to 144 °C. In turn, `COc1ccc(-c2c(C)ccn2N2C(=O)c3ccccc3C2=O)c(Cl)c1` gave a melting point of 202 to 208 °C. The result for `CC(=O)OCc1ccc(C#Cc2ccc3c(c2)C(C)(C)CCC3(C)C)cc1` reads 136 to 139 °C. `CCCC=Cc1c(C(C)C)cc(C(C)C)c(CO)c1-c1ccc(F)cc1` came in with a melting point of 85 to 95 °C. With `O=C(O)C1CCc2c(c3ccccc3n2C(=O)c2ccc3c(c2)OCO3)C1` (configuration not stated), the melting point was in the range of 198 to 200 °C. On to `c1ccc2c(c1)ccc1c(-c3ccncc3)[nH]nc12`, for which the melting point lay in the range of 271 to 273 °C. `CCOC(=O)Cc1nc2ccccc2n1-c1ccccc1` showed a melting point of 87 to 89 °C.

In turn, `CN(C)CCc1c[nH]c2ccc(C(N)=S)cc12` had a melting point of 155 °C.

As to `CCOCCOc1ccc(CCNC(=O)/C=C/c2cccs2)cc1S(=O)(=O)NC(=O)NC`, the melting point worked out at 65 °C. As for `CCCCCCCCCCCCCCCCc1cc(-c2ccccn2)nc(-c2ccccn2)c1`, the melting point fell in the range of 97.5 to 99 °C. Consider `O=C1N(Cc2ccc(Cl)s2)c2ccccc2C12COc1cc3c(cc12)OCO3` (configuration not stated), for which the melting point fell in the range of 145 to 146 °C. With `COc1cc2c(cc1OC)-c1cc(=Nc3c(C)cc(C)cc3C)n(C)c(=O)n1CC2`, the melting point is 151 to 152 °C. In the case of `Cc1ccc(-n2c(-c3sc(Nc4ccc(Cl)cc4)nc3-c3ccccc3)nc3ccccc3c2=O)cc1`, the melting point was above 275 °C. For `Cc1cccc(-c2cn(C)cc(-c3ccc(Br)cc3)c2=O)c1`, the melting point was 201 to 204 °C.

With `C=CCc1cc2c(cc1OCC=Cc1ccccc1)CCC(=O)N2CC=Cc1ccccc1`, the melting point lay within 88 to 89 °C. Next, `COCC(C(=O)O)N(CCN(CC(=O)O)C(COC)C(=O)O)CC(=O)O` (configuration not stated): 215 °C; `Nc1ccc2c(c1)c(-c1ccc(CO)o1)nn2Cc1ccccc1`: 156 °C. The result for `CC(C)C/C=C(\C[C@H](N)C(=O)O)C(=O)O` reads 190 to 199 °C; that for `O=C(O)C(=NO)C(c1ccc(OCc2ccccn2)cc1)c1ccc(OCc2ccccn2)cc1`, 154 °C; that for `CC(O)C#CC1(O)C(C)C=CCC1(C)C` (configuration not stated), 101 to 104 °C. The result for `O=C(CCCCC(=O)NCC1Cc2c1ccc(OCc1ccccc1)c2OCc1ccccc1)NCCc1ccccc1` (configuration not stated) reads 152 to 155 °C; that for `O=C(Nc1cccc(-c2nnn[nH]2)c1)Oc1ccc([N+](=O)[O-])cc1`, 186 to 188 °C; that for `Cc1cc(C)cc(S(=O)(=O)c2nnc(C(F)(F)F)s2)c1`, 110 °C. `CC(=O)n1ccc(-c2ccc(F)cc2)c1-c1ccc(S(C)(=O)=O)cc1`: the melting point was in the range of 211 to 214 °C. The result for `COCCNC(=O)CC1CN=C(c2cc3cc(Oc4ccc(S(C)(=O)=O)nc4)ccc3[nH]2)S1` (configuration not stated) reads 155 to 156 °C. For the compound `CC(=O)Nc1c([N+](=O)[O-])cnn1-c1c(F)cc(C(F)(F)F)cc1Cl`, the melting point was 129 to 130 °C. `c1ccc(C2=Nc3ccccc3OC2)cc1` came in with a melting point of 108 to 111 °C. `CCC(=O)Nc1ccc(-c2ccnc3c(C(=O)c4ccccc4)cnn23)cc1` gave a melting point of 211 to 213 °C. The result for `N#Cc1ccc(S(=O)(=O)N2CCn3c(c(C(N)=O)c(Cl)c3-c3ccccc3)C2)cc1` reads 205 to 206 °C. `COc1c(NC(=O)c2ccc(C)c(-n3cc(C(=O)NCc4cccnc4)cn3)c2)cc(C(C)(C)C)cc1NS(C)(=O)=O` showed a melting point of 127 to 133 °C.

`Cn1ccc2c(N3CCN(CC4CCc5ccccc5N4C(=O)C4CCCCC4)CC3)cccc21` (configuration not stated) came in with a melting point of 66 to 70 °C. Compound `O=C(O)CCc1cc2cc(Cl)ccc2n1S(=O)(=O)c1ccc2c(c1)CCN2` registered a melting point of 157 °C. On to `O=c1c(N2CCNCC2)nc2ccccc2n1-c1cccc(F)c1`, for which the melting point lay in the range of 149 to 150 °C. Regarding `C(#Cc1cccc2ccccc12)c1ccccc1`, the melting point lay within 51 to 53 °C. Regarding `O=C(O)CCC(=O)c1ccc(Br)s1`, the melting point was in the range of 141 to 143 °C. Compound `O=C(COc1ccc([N+](=O)[O-])cc1)OCCOC(=O)COc1ccc([N+](=O)[O-])cc1` showed a melting point of 118 to 121 °C. In turn, `CC(C)(C)c1cc(NC(=O)c2csc(-c3ccc([N+](=O)[O-])cc3)n2)cc(C(C)(C)C)c1O` registered a melting point of 262 to 264 °C. As to `COc1ccc2c(c1OCc1ccccc1)CC(C(=O)O)N(C(=O)C(c1ccc(Cl)cc1)c1ccc(Cl)cc1)C2` (racemic), the melting point lay within 186 to 188 °C.

As to `CC1(N)CCN(c2ncc3ncnc(Nc4ccc(F)c(Cl)c4)c3n2)CC1`, the melting point was 188 to 190 °C. `NS(=O)(=O)c1ccc(-c2nc(-c3cnn4c(C(F)(F)F)cc(-c5ccc(C(F)(F)F)cc5)nc34)no2)s1` registered a melting point of 272 °C. `COc1ccc(C2=NN(C3CCOCC3)C(=O)[C@H]3CC=CC[C@@H]23)cc1OC` (relative stereo) yielded a melting point of 175 to 177 °C.

As for `C#CCn1c2ccccc2c2cc(Br)ccc21`, the melting point lay in the range of 142 to 149 °C.

Compound `O=[N+]([O-])c1c(O)ccnc1O` returned a melting point above 230 °C. Next, `CCCCc1ccc(N)nc1`: 30 to 33 °C. On to `CC(=O)N[C@@H](CSC(c1ccccc1)(c1ccccc1)c1ccccc1)C(=O)N1CCSC1`, for which the melting point lay in the range of 197 to 198 °C. For the compound `c1coc(-c2nnc(Sc3cnccn3)o2)c1`, the melting point lay in the range of 92 to 93 °C.

The compound `Cn1ncc2c(c1=O)S(=O)(=O)CCNC2Cc1ccccc1` (configuration not stated) displayed a melting point of 288 to 290 °C. Compound `CN1CCN(CNc2nc(OCc3ccc(F)cc3)ncc2F)CC1` had a melting point of 125 to 126 °C.

For `CCCCOc1ccc(F)cc1OCCN1C(=O)c2ccccc2C1=O`, the melting point fell in the range of 107 to 108 °C.

`O=C(C[C@@H](CCCC1CCCCC1)c1nc(CNC2CCC2)no1)NO`: the melting point lay within 82 to 83.9 °C. Compound `CON(C)C(=O)COc1nnc(-c2ccc3c(c2)CCO3)o1` returned a melting point of 139 to 140 °C. The result for `Cc1ccc(OC2SCC(O)C(O)C2O)c(F)n1` (configuration not stated) reads 167 to 170 °C; that for `CCOC(=O)c1cn(CC)c2c(=O)c3cc(Cl)ccc3oc2c1=O`, 257 to 259 °C; that for `O=C(NCCc1ccccc1F)c1c(Cl)ccc2nc(N3CCC(C(=O)O)CC3)ccc12`, 270 to 272 °C. `N#Cc1cc(Oc2ccc3c(C(=O)Nc4cccc(C(F)(F)F)c4)cccc3c2)ncn1` had a melting point of 167 °C. Turning to `CC(c1ccc(O)cc1)(c1ccc(O)cc1)C(F)(F)F`, the melting point fell in the range of 93 to 94.5 °C. `CCCC(c1ccncc1)n1ccc2ccccc21` (configuration not stated) yielded a melting point of 91 to 94 °C. The compound `O=C(c1ccccc1)c1cccc(OCCn2ccnc(N3CCNCC3)c2=O)c1` came in with a melting point of 69 to 70 °C. As for `O=C1NC(=O)C(N(Cc2ccc(Br)cc2)c2ccc(CCNCC(O)COc3ccc(OCc4ccccc4)cc3)cc2)S1` (configuration not stated), the melting point fell in the range of 50 to 52 °C. Turning to `Cc1cc(NCc2ccccc2)c2c(c1)C(c1ccc(C(C)C)cc1)C(C)(C)O2` (configuration not stated), the melting point was in the range of 80 to 81 °C.

As for `O=[N+]([O-])c1ccc(SNc2nccs2)c(C(Cl)(Cl)Cl)c1`, the melting point came to 165 °C. `CC(C)(C)NCC(O)COc1ccc(-c2nc(C(F)(F)F)c[nH]2)cc1` (configuration not stated) gave a melting point of 186 °C. Next, `COC(=O)CCC(=O)c1ccc(-c2ccc(C)cc2)cc1`: 121 to 122 °C. In turn, `CCOC(=O)C1=C(N)NC(C)=CC1c1ccccc1` (configuration not stated) came in with a melting point of 150 °C. Take `CC(N)C(=O)NC(CCC(=O)NC(CC=CCC(=O)O)C(=O)O)C(=O)O` (configuration not stated): the melting point was 70 °C.

`Cc1nnc(-c2ccc3occ(-c4cc(F)ccc4F)c3c2)o1` returned a melting point of 143 to 144 °C.

Compound `CSc1cccc(-c2nc(=O)c3ccccc3s2)n1` came in with a melting point of 207 to 208 °C.

As to `COc1ccc2c(=O)cc(-c3ccc(OCC(O)CNC4CC4)cc3)oc2c1` (configuration not stated), the melting point was in the range of 105 to 106 °C. Next, `CC(=O)c1ccc(NS(=O)(=O)N(C)C)c(Oc2ccc(F)cc2F)c1`: 80 to 82 °C. The compound `O=C(O)CCCCCCCCNS(=O)(=O)c1ccccc1` had a melting point of 82 to 84 °C. The result for `COC(=O)[C@H]1CC[C@@H](C(=O)O)CN1S(C)(=O)=O` (racemic) reads 130 to 133 °C; that for `OCCCc1ccc2ccccc2c1OCc1ccccc1`, 80 to 81 °C; that for `CC=C(NC(=O)CC(C)C)C(=O)O`, 172 to 174 °C.

For the compound `Cn1nc2c(-c3ccc(Cl)cc3Cl)cccc2c1CCc1ncn[nH]1`, the melting point was 92 to 116 °C. With `COc1ccc2[nH]c(SCc3nccc(SCc4ccco4)c3C)nc2c1`, the melting point was in the range of 106 to 108 °C.

In turn, `CCOC(=O)c1nc(N)sc1-c1nc2ccccn2c1C` returned a melting point of 180 to 182 °C.

With `CCOP(=O)(CNC(C)(c1ccccc1)c1cc(C(C)(C)C)c(O)c(C(C)(C)C)c1)OCC` (configuration not stated), the melting point was 104 to 105 °C. `CC(/C=C/[C@H]1C[C@H]1c1ccc2c(c1)C(C)(C)CCC2(C)C)=C\C(=O)O` (racemic) gave a melting point of 93 to 96 °C. Compound `O=C1c2ccccc2C(=O)N1Cc1cccc(-c2nc(=O)c3ccccc3s2)n1` displayed a melting point of 280 to 281 °C. Compound `Cc1ncoc1C(=O)c1ccoc1` came in with a melting point of 82 to 83.5 °C. `Cc1cc(Cl)n(-c2ccc(Cl)nn2)n1` registered a melting point of 123 to 126 °C.

`O=[N+]([O-])c1cc(C(F)(F)F)cc2c1nc(C(F)(F)F)n2S(=O)(=O)c1ccccc1` yielded a melting point of 183 to 185 °C. `Cc1c(C(=O)Nc2ccc(N3CCOCC3)c(C#N)c2)cnn1-c1ccc(F)cc1` displayed a melting point of 201 to 202 °C. The result for `O=C(Nc1ccccc1)n1nc(-c2ccccc2)cc1Sc1ccccc1` reads 138 to 140 °C. For the compound `Cc1c(C)c2c(c(C)c1NC(=O)CC(C)(C)C)C(O)(c1ccccn1)C(C)(C)O2` (configuration not stated), the melting point is 205 to 207 °C.
